According to ChEMBL document CHEMBL1201862, “PubChem BioAssay data set” (2004):
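Method: 48-hour compound exposure of cells in 96-well plates, five concentrations, linear interpolation of endpoints. GI50 marks 50% less growth.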 Activity calls are given as the source filed them. Rule as the data show it: active = GI50 up to about 1.1 µM and inactive = higher.

Assays:
Test in all cases: NCI tumour cell line growth inhibition, 48 h
CAKI-1 = tested on: CAKI-1
M14 = tested on: M14
BT-549 = tested on: BT-549
RXF 393 = tested on: RXF 393
SF-268 = tested on: SF-268
SK-MEL-2 = tested on: SK-MEL-2
MDA-N = tested on: MDA-N
DU-145 = tested on: DU-145
NCI-H460 = tested on: NCI-H460
MDA-MB-435 = tested on: MDA-MB-435
SNB-75 = tested on: SNB-75
Hs-578T = tested on: Hs-578T
K562 = tested on: K562
SK-MEL-5 = tested on: SK-MEL-5
A549 = tested on: A549
PC-3 = tested on: PC-3
SF-539 = tested on: SF-539
SK-MEL-28 = tested on: SK-MEL-28
LOX IMVI = tested on: LOX IMVI

Measured: GI50

O=c1oc2ccccc2cc1/C=N/N1C(=S)N(c2ccccc2)C(=N\c2ccccc2)/C1=N/c1ccccc1
inactive: CAKI-1 > 100 µM | M14 > 100 µM | BT-549 > 100 µM | RXF 393 26.4 µM | SF-268 > 100 µM | SK-MEL-2 > 100 µM | MDA-N 20.5 µM | DU-145 > 100 µM | NCI-H460 47.6 µM | MDA-MB-435 > 100 µM | SNB-75 1.65 µM | Hs-578T > 100 µM | K562 > 100 µM | SK-MEL-5 87.7 µM | A549 > 100 µM | PC-3 14 µM | SF-539 > 100 µM | SK-MEL-28 > 100 µM

COc1ccc2oc(=O)c(CC=C(C)C)c(O)c2c1C
inactive: CAKI-1 > 100 µM | M14 > 100 µM | BT-549 > 100 µM | SF-268 > 100 µM | SK-MEL-2 > 100 µM | MDA-N > 100 µM | DU-145 > 100 µM | NCI-H460 > 100 µM | MDA-MB-435 > 100 µM | SNB-75 > 100 µM | Hs-578T > 100 µM | K562 > 100 µM | SK-MEL-5 > 100 µM | A549 > 100 µM | PC-3 > 100 µM | SF-539 > 100 µM | SK-MEL-28 > 100 µM | LOX IMVI > 100 µM

CCOC(=O)Nc1sc2c(c1C#N)CC(C)CC2 (stereo unspecified)
inactive: CAKI-1 21.8 µM | M14 2.66 µM | BT-549 19.7 µM | RXF 393 5.38 µM | SF-268 10.7 µM | SK-MEL-2 2.16 µM | MDA-N 1.6 µM | DU-145 20.9 µM | NCI-H460 3.41 µM | MDA-MB-435 1.32 µM | SNB-75 2.82 µM | Hs-578T 8.59 µM | K562 2.38 µM | SK-MEL-5 4.8 µM | A549 5.06 µM | PC-3 5.35 µM | SK-MEL-28 17.1 µM | LOX IMVI 10.2 µM

CC(C)C1OC(/C=C/c2ccccc2)OCC1(C)C (stereo unspecified)
inactive: CAKI-1 31.8 µM | M14 36.2 µM | BT-549 36.1 µM | RXF 393 18.1 µM | SF-268 33 µM | SK-MEL-2 18.2 µM | MDA-N 36.3 µM | DU-145 37.2 µM | NCI-H460 17.1 µM | MDA-MB-435 33.7 µM | SNB-75 26.9 µM | Hs-578T 22.8 µM | K562 25.4 µM | SK-MEL-5 17.7 µM | A549 29.9 µM | PC-3 37.1 µM | SK-MEL-28 53.3 µM | LOX IMVI 18.9 µM

CN(C)c1ccc(C2=C([O-])c3cc(-[n+]4ccccc4)ccc3C2=O)cc1
inactive: CAKI-1 > 100 µM | BT-549 > 100 µM | RXF 393 > 100 µM | SF-268 > 100 µM | MDA-N > 100 µM | DU-145 > 100 µM | NCI-H460 > 100 µM | MDA-MB-435 > 100 µM | SNB-75 > 100 µM | Hs-578T > 100 µM | K562 > 100 µM | SK-MEL-5 > 100 µM | A549 > 100 µM | PC-3 > 100 µM | SF-539 > 100 µM | SK-MEL-28 > 100 µM | LOX IMVI > 100 µM

O=S(=O)(O)c1ccc2c(/N=N/c3cccc4ccccc34)c(O)ccc2c1
inactive: CAKI-1 > 100 µM | M14 > 100 µM | BT-549 > 100 µM | RXF 393 > 100 µM | SF-268 > 100 µM | SK-MEL-2 > 100 µM | MDA-N > 100 µM | DU-145 > 100 µM | MDA-MB-435 > 100 µM | SNB-75 > 100 µM | Hs-578T > 100 µM | K562 > 100 µM | SK-MEL-5 > 100 µM | A549 > 100 µM | PC-3 > 100 µM | SK-MEL-28 > 100 µM | LOX IMVI > 100 µM

COc1cc2c(c(OC)c1OC)C(=O)c1c(O)cc(C)c(OC)c1C2=O
inactive: CAKI-1 44.6 µM | M14 > 100 µM | BT-549 > 100 µM | SF-268 > 100 µM | SK-MEL-2 88.1 µM | MDA-N > 100 µM | DU-145 > 100 µM | NCI-H460 63.1 µM | MDA-MB-435 91.8 µM | SNB-75 > 100 µM | Hs-578T 15.6 µM | K562 > 10 µM | SK-MEL-5 39.4 µM | A549 77.3 µM | PC-3 > 100 µM | SF-539 75.5 µM | SK-MEL-28 37.2 µM | LOX IMVI 86.3 µM

Clc1cccc(Cl)c1C1SCc2nc3cc4ccccc4cc3n21 (stereo unspecified)
inactive: CAKI-1 > 100 µM | M14 > 100 µM | BT-549 > 100 µM | RXF 393 > 100 µM | SF-268 > 100 µM | SK-MEL-2 > 100 µM | MDA-N > 100 µM | DU-145 > 100 µM | NCI-H460 > 100 µM | MDA-MB-435 > 100 µM | SNB-75 > 100 µM | Hs-578T > 100 µM | K562 > 100 µM | SK-MEL-5 > 100 µM | A549 > 100 µM | PC-3 > 100 µM | SK-MEL-28 > 100 µM
